Data reported in US20030186434A1, “Method of forming vertebrate pancreas in vitro” (priority 2002, published 2003).

Tests used:
[1] = test system: blastopore upper lip of early gastrula of a Xenopus; assay: Timing of retinoic acid treatment: preculture of blastopore upper lip before one hour treatment; assay type: cell-based; conditions: 10^−4 M, treated 1 hour, cultured 10 days
Experimental: Regarding the other tissues, an intestinal epithelium was formed aside from notochord and mesenchyme in those precultured for 0 and 5 hours. However, as to those treated with retinoic acid after preculture for more than 15 hours, the formation of intestinal epithelium was suppressed and the differentiation rate of epithelium, coelomic epithelium and pharyngeal epithelium increased.

[2] = test system: blastopore upper lip of early gastrula of a Xenopus; assay: Tissue differentiation of blastopore upper lip cultured continuously in retinoic acid solution for 10 days; assay type: cell-based; conditions: for Atypical epidermis differentiated, specimens (%) / Cartilage differentiated, specimens (%) / Cement gland differentiated, specimens (%) / Coelomic epithelium differentiated, specimens (%) / Ear vesicle differentiated, specimens (%) / Epidermis differentiated, specimens (%) / Eye or its fragments differentiated, specimens (%) / Gastric gland differentiated, specimens (%) / Hemocyte differentiated, specimens (%) / Intestinal epithelium differentiated, specimens (%) / Mesenchyme differentiated, specimens (%) / Muscle differentiated, specimens (%) / Neural tissue differentiated, specimens (%) / Notochord differentiated, specimens (%) / Pancreas differentiated, specimens (%) / Pharyngeal epithelium differentiated, specimens (%) / Pronephros differentiated, specimens (%) / Yolk-rich cell differentiated, specimens (%): continuous 10 days
[3] = preculture 0 hours, 34 specimens
[4] = preculture 5 hours, 36 specimens
[5] = preculture 15 hours, 40 specimens
[6] = preculture 25 hours, 34 specimens

## CC1=C(/C=C/C(C)=C/C=C/C(C)=C/C(=O)O)C(C)(C)CCC1 [Retinoic acid, retinoic acid]
[1]; [3]
  Atypical epidermis differentiated, specimens (%): 0 (0)
  Cartilage differentiated, specimens (%): 0 (0)
  Cement gland differentiated, specimens (%): 0 (0)
  Coelomic epithelium differentiated, specimens (%): 0 (0)
  Ear vesicle differentiated, specimens (%): 0 (0)
  Epidermis differentiated, specimens (%): 11 (32)
  Eye or its fragments differentiated, specimens (%): 0 (0)
  Gastric gland differentiated, specimens (%): 0 (0)
  Hemocyte differentiated, specimens (%): 0 (0)
  Intestinal epithelium differentiated, specimens (%): 34 (100)
  Mesenchyme differentiated, specimens (%): 23 (68)
  Muscle differentiated, specimens (%): 1 (3)
  Neural tissue differentiated, specimens (%): 0 (0)
  Notochord differentiated, specimens (%): 33 (97)
  Pancreas differentiated, specimens (%): 24 (71)
  Pharyngeal epithelium differentiated, specimens (%): 25 (74)
  Pronephros differentiated, specimens (%): 0 (0)
  Yolk-rich cell differentiated, specimens (%): 32 (94)
[1]; [4]
  Atypical epidermis differentiated, specimens (%): 0 (0)
  Cartilage differentiated, specimens (%): 0 (0)
  Cement gland differentiated, specimens (%): 0 (0)
  Coelomic epithelium differentiated, specimens (%): 0 (0)
  Ear vesicle differentiated, specimens (%): 0 (0)
  Epidermis differentiated, specimens (%): 5 (14)
  Eye or its fragments differentiated, specimens (%): 0 (0)
  Gastric gland differentiated, specimens (%): 0 (0)
  Hemocyte differentiated, specimens (%): 0 (0)
  Intestinal epithelium differentiated, specimens (%): 33 (92)
  Mesenchyme differentiated, specimens (%): 30 (83)
  Muscle differentiated, specimens (%): 0 (0)
  Neural tissue differentiated, specimens (%): 0 (0)
  Notochord differentiated, specimens (%): 36 (100)
  Pancreas differentiated, specimens (%): 19 (53)
  Pharyngeal epithelium differentiated, specimens (%): 27 (75)
  Pronephros differentiated, specimens (%): 0 (0)
  Yolk-rich cell differentiated, specimens (%): 30 (83)
[1]; [5]
  Atypical epidermis differentiated, specimens (%): 0 (0)
  Cartilage differentiated, specimens (%): 0 (0)
  Cement gland differentiated, specimens (%): 0 (0)
  Ear vesicle differentiated, specimens (%): 0 (0)
  Epidermis differentiated, specimens (%): 13 (33)
  Eye or its fragments differentiated, specimens (%): 0 (0)
  Hemocyte differentiated, specimens (%): 0 (0)
  Mesenchyme differentiated, specimens (%): 40 (95)
  Muscle differentiated, specimens (%): 0 (0)
  Neural tissue differentiated, specimens (%): 0 (0)
  Pronephros differentiated, specimens (%): 0 (0)
[1]; [6]
  Atypical epidermis differentiated, specimens (%): 0 (0)
  Cartilage differentiated, specimens (%): 0 (0)
  Cement gland differentiated, specimens (%): 0 (0)
  Coelomic epithelium differentiated, specimens (%): 16 (47)
  Ear vesicle differentiated, specimens (%): 0 (0)
  Epidermis differentiated, specimens (%): 28 (82)
  Eye or its fragments differentiated, specimens (%): 0 (0)
  Gastric gland differentiated, specimens (%): 0 (0)
  Hemocyte differentiated, specimens (%): 0 (0)
  Intestinal epithelium differentiated, specimens (%): 5 (15)
  Mesenchyme differentiated, specimens (%): 34 (100)
  Muscle differentiated, specimens (%): 1 (3)
  Neural tissue differentiated, specimens (%): 0 (0)
  Notochord differentiated, specimens (%): 33 (97)
  Pancreas differentiated, specimens (%): 0 (0)
  Pharyngeal epithelium differentiated, specimens (%): 34 (100)
  Pronephros differentiated, specimens (%): 0 (0)
  Yolk-rich cell differentiated, specimens (%): 20 (59)
[2]; 10^−4 M, continuous treatment
  survival of explants while being cultured: all the explants died
[2]; 10^−5 M, 17 specimens
  Atypical epidermis differentiated, specimens (%): 0 (0)
  Cartilage differentiated, specimens (%): 0 (0)
  Cement gland differentiated, specimens (%): 0 (0)
  Coelomic epithelium differentiated, specimens (%): 2 (12)
  Ear vesicle differentiated, specimens (%): 0 (0)
  Epidermis differentiated, specimens (%): 7 (41)
  Eye or its fragments differentiated, specimens (%): 0 (0)
  Gastric gland differentiated, specimens (%): 0 (0)
  Hemocyte differentiated, specimens (%): 0 (0)
  Intestinal epithelium differentiated, specimens (%): 8 (47)
  Mesenchyme differentiated, specimens (%): 8 (47)
  Muscle differentiated, specimens (%): 0 (0)
  Neural tissue differentiated, specimens (%): 0 (0)
  Notochord differentiated, specimens (%): 14 (82)
  Pancreas differentiated, specimens (%): 2 (12)
  Pharyngeal epithelium differentiated, specimens (%): 5 (29)
  Pronephros differentiated, specimens (%): 0 (0)
  Yolk-rich cell differentiated, specimens (%): 15 (88)
[2]; 10^−6 M, 16 specimens
  Atypical epidermis differentiated, specimens (%): 0 (0)
  Cartilage differentiated, specimens (%): 0 (0)
  Cement gland differentiated, specimens (%): 0 (0)
  Coelomic epithelium differentiated, specimens (%): 2 (13)
  Ear vesicle differentiated, specimens (%): 0 (0)
  Epidermis differentiated, specimens (%): 1 (6)
  Eye or its fragments differentiated, specimens (%): 0 (0)
  Gastric gland differentiated, specimens (%): 2 (13)
  Hemocyte differentiated, specimens (%): 0 (0)
  Intestinal epithelium differentiated, specimens (%): 14 (88)
  Mesenchyme differentiated, specimens (%): 13 (81)
  Muscle differentiated, specimens (%): 3 (19)
  Neural tissue differentiated, specimens (%): 0 (0)
  Notochord differentiated, specimens (%): 14 (88)
  Pancreas differentiated, specimens (%): 1 (6)
  Pharyngeal epithelium differentiated, specimens (%): 3 (19)
  Pronephros differentiated, specimens (%): 0 (0)
  Yolk-rich cell differentiated, specimens (%): 14 (88)
[2]; 10^−7 M, 15 specimens
  Atypical epidermis differentiated, specimens (%): 0 (0)
  Cartilage differentiated, specimens (%): 0 (0)
  Cement gland differentiated, specimens (%): 0 (0)
  Coelomic epithelium differentiated, specimens (%): 9 (60)
  Ear vesicle differentiated, specimens (%): 0 (0)
  Epidermis differentiated, specimens (%): 8 (53)
  Eye or its fragments differentiated, specimens (%): 0 (0)
  Gastric gland differentiated, specimens (%): 3 (20)
  Hemocyte differentiated, specimens (%): 0 (0)
  Intestinal epithelium differentiated, specimens (%): 5 (33)
  Mesenchyme differentiated, specimens (%): 9 (60)
  Muscle differentiated, specimens (%): 4 (27)
  Neural tissue differentiated, specimens (%): 2 (13)
  Notochord differentiated, specimens (%): 14 (93)
  Pancreas differentiated, specimens (%): 1 (7)
  Pharyngeal epithelium differentiated, specimens (%): 9 (60)
  Pronephros differentiated, specimens (%): 1 (7)
  Yolk-rich cell differentiated, specimens (%): 13 (87)
[2]; 10^−8 M, 20 specimens
  Atypical epidermis differentiated, specimens (%): 0 (0)
  Cartilage differentiated, specimens (%): 9 (45)
  Cement gland differentiated, specimens (%): 0 (0)
  Coelomic epithelium differentiated, specimens (%): 6 (30)
  Ear vesicle differentiated, specimens (%): 0 (0)
  Epidermis differentiated, specimens (%): 19 (95)
  Eye or its fragments differentiated, specimens (%): 0 (0)
  Gastric gland differentiated, specimens (%): 0 (0)
  Hemocyte differentiated, specimens (%): 0 (0)
  Intestinal epithelium differentiated, specimens (%): 2 (10)
  Mesenchyme differentiated, specimens (%): 19 (95)
  Muscle differentiated, specimens (%): 12 (60)
  Neural tissue differentiated, specimens (%): 7 (35)
  Notochord differentiated, specimens (%): 17 (85)
  Pancreas differentiated, specimens (%): 1 (5)
  Pharyngeal epithelium differentiated, specimens (%): 12 (60)
  Pronephros differentiated, specimens (%): 0 (0)
  Yolk-rich cell differentiated, specimens (%): 9 (45)
[2]; 10^−9 M, 11 specimens
  Atypical epidermis differentiated, specimens (%): 0 (0)
  Cartilage differentiated, specimens (%): 5 (45)
  Cement gland differentiated, specimens (%): 0 (0)
  Coelomic epithelium differentiated, specimens (%): 5 (45)
  Ear vesicle differentiated, specimens (%): 0 (0)
  Epidermis differentiated, specimens (%): 11 (100)
  Eye or its fragments differentiated, specimens (%): 0 (0)
  Gastric gland differentiated, specimens (%): 0 (0)
  Hemocyte differentiated, specimens (%): 0 (0)
  Intestinal epithelium differentiated, specimens (%): 0 (0)
  Mesenchyme differentiated, specimens (%): 10 (91)
  Muscle differentiated, specimens (%): 9 (82)
  Neural tissue differentiated, specimens (%): 9 (82)
  Notochord differentiated, specimens (%): 11 (100)
  Pancreas differentiated, specimens (%): 0 (0)
  Pharyngeal epithelium differentiated, specimens (%): 7 (64)
  Pronephros differentiated, specimens (%): 0 (0)
  Yolk-rich cell differentiated, specimens (%): 8 (73)
[2]; continuous treatment 10 days, any concentration tested
  formation rate of pancreas: about 10%
